“And” between values parts separate entries of the source, which are not always exact repeats. Identical values can stand only once. “Also recorded” adds a separate entry of the source.
Key:
TEM-1 S130G β-lactamase = system: TEM-1 S130G β-lactamase; parameters: method as in PMID 15981999; settings: cited from earlier work
[1] = target: T1, CTX-M-14 S130A β-lactamase (Escherichia coli, UniProt Q9L5C7, S133A); experiment: Steady-state kinetics of β-lactam hydrolysis, S130A enzyme; format: biochemical; settings: for Km / kcat: S130A; for fold decrease in kcat / fold increase in Km: S130A compared with WT
T1 construct: His6 (TEV-cleavable) (N, cleaved yes); made in house; host or cells: E. coli BL21(DE3)
Protocol: (§1) Michaelis–Menten steady-state kinetic parameters of CTX-M-14 β-lactamases were determined on various β-lactam substrates. Wavelength and extinction coefficients used for detection were as follows: ampicillin, 235 nm, Δε = 900 M^−1 cm^−1; cephalothin, 262 nm, Δε = 7,660 M^−1 cm^−1; cefotaxime, 264 nm, Δε = 7,250 M^−1 cm^−1; nitrocefin, 482 nm, Δε = 15,000 M^−1 cm^−1; cefpodoxime, 235 nm, Δε = 1,023 M^−1 cm^−1; ceftriaxone, 241 nm, Δε = 2,046 M^−1 cm^−1. Enzymatic reactions were performed at 25 °C in buffer containing 50 mM sodium phosphate (pH 7.0) and 1 μg/ml BSA. Substrate hydrolysis was monitored by Beckman Coulter spectrophotometer model DU 800 (Beckman Coulter, Brea, CA, USA). Initial hydrolysis velocities of substrate were plotted as a function of concentrations and fitted into a Michaelis–Menten equation using GraphPad Prism 5 (GraphPad Software, San Diego, CA, USA) to obtain Km and kcat values. The kcat/Km values for the enzymes where kcat and Km could not be determined independently were estimated using the equation, ν = (kcat/Km)[E][S], where [S] ≪ Km ([54]).

[2] = target: T2, CTX-M-14 K234R β-lactamase (Escherichia coli, UniProt Q9L5C7, K237R); experiment: Steady-state kinetics of β-lactam hydrolysis, K234R enzyme; format: biochemical; settings: for Km / kcat: 25 °C, pH 7.0
T2 construct: His6 (TEV-cleavable) (N, cleaved yes); made in house; host or cells: E. coli BL21(DE3), pET28a-CTX-M-14 with K234R
Protocol: as §1

[3] = target: T3, CTX-M-14 S130A/K234R β-lactamase (Escherichia coli, UniProt Q9L5C7, K237R/S133A); experiment: Steady-state kinetics of β-lactam hydrolysis, S130A/K234R enzyme; format: biochemical
T3 construct: His6 (TEV-cleavable) (N, cleaved yes); made in house; host or cells: E. coli BL21(DE3)
Protocol: as §1

WT CTX-M-14 β-lactamase [4] = target: T4, WT CTX-M-14 β-lactamase (Escherichia coli, UniProt Q9L5C7); experiment: Single-turnover stopped-flow kinetics, WT enzyme; format: biochemical
T4 construct: His6 (TEV-cleavable) (N, cleaved yes); made in house; host or cells: E. coli BL21(DE3), plasmid pET28a-CTX-M-14
Protocol: (§2) Single-turnover kinetics experiments were used to determine the acylation rate for the CTX-M-14 WT and K234R enzymes. Kinetic measurements were carried out at 25 °C using a using a KinTek stopped-flow instrument. Protein concentrations used in this experiment exceed the substrate concentrations. To prepare sample injection, 1 ml of increasing concentrations of CTX-M-14 proteins and 1 ml of 2.5–5 μM cefotaxime were loaded into two separate drive syringes. 5 μM cefotaxime was used for single-turnover experiments with WT CTX-M-14, whereas 2.5 μM cefotaxime was used in experiments with the K234R enzyme. Data collection times were adjusted empirically. Absorbance at 264 nm was monitored after samples in two syringes were mixed. For each selected time period, 1,000 data points were collected, and at least three kinetic traces were obtained to ensure high-quality data. Kinetic data with various protein concentrations were fitted to a single-exponential function, At=A^(−kt)+C , to determine kobs, which was then used to determine k2 by fitting kobs as a function of enzyme concentration to a hyperbola, as has been reported previously for serine β-lactamases and serine proteases ([33], [34], [35]). The deacylation rate constant, k3, was calculated from the experimental values determined for kcat and k2, using the equation, kcat = k2 × k3/(k2 + k3). Solving the equation for kcat in terms of k3 gives k3 = (k2 × kcat)/(kcat − k2). The error in the calculated value of k3 was determined by propagating the errors in k2 and kcat through the equation by adding the absolute errors for the sum (difference) in the denominator to obtain the absolute and the percentage error in kcat − k2. The percentage error of the numerator, (kcat × k2), was calculated by adding the percentage error for kcat and k2, and the final percentage and absolute errors on k3 were then obtained by adding the percentage error of the numerator and denominator to yield the percentage error in k3.

CTX-M β-lactamases = settings: CTX-M versus TEM-1; cited from earlier work
PSE-4 β-lactamase = system: PSE-4 β-lactamase; parameters: method as in PMID 11148033, PMID 9756758; settings: WT PSE-4; cited from earlier work
[5] = target: T2, CTX-M-14 K234R β-lactamase; experiment: Single-turnover stopped-flow kinetics, K234R enzyme; format: biochemical
Protocol: as §2, with “Kinetic data with various protein concentrations were fitted to a single-exponential function, At=A^(−kt)+C , to determine kobs, which was then used to determine k2 by fitting kobs as a function of enzyme concentration to a hyperbola, as has been reported previously for serine β-lactamases and serine proteases ([33], [34], [35]).” left out, “Solving the equation for kcat in terms of k3 gives k3 = (k2 × kcat)/(kcat − k2).” left out, “The percentage error of the numerator, (kcat × k2), was calculated by adding the percentage error for kcat and k2, and the final percentage and absolute errors on k3 were then obtained by adding the percentage error of the numerator and denominator to yield the percentage error in k3.” left out

[6] = target: T1, CTX-M-14 S130A β-lactamase; experiment: Clavulanic acid inhibition (Ki, Morrison fit), S130A enzyme; format: biochemical; settings: ampicillin as indicator substrate, 20 min preincubation
Protocol: (§3) The Ki values for clavulanic acid inhibition of CTX-M-14 WT and variants were determined by mixing the enzymes with increasing concentrations of clavulanic acid in buffer containing 50 mM sodium phosphate (pH 7.0) and 1 μg/ml BSA and incubating at room temperature for 20 min. Enzyme activity was evaluated by monitoring the initial velocity of hydrolysis of 100 μM ampicillin using Beckman Coulter spectrophotometer model DU 800. The percentage activity was calculated by dividing the initial hydrolysis velocity for ampicillin in the presence of clavulanic acid by the velocity in the absence of clavulanic acid and plotted as a function of clavulanic acid concentration. The Ki values were obtained by fitting the data into Morrison equation using GraphPad Prism 5 ([55]).

[7] = target: T2, CTX-M-14 K234R β-lactamase; experiment: Clavulanic acid inhibition (Ki, Morrison fit), K234R enzyme; format: biochemical; settings: ampicillin as indicator substrate, 20 min preincubation
Protocol: as §3

WT CTX-M-14 β-lactamase [8] = target: T4, WT CTX-M-14 β-lactamase; experiment: Clavulanic acid inhibition (Ki, Morrison fit), WT enzyme; format: biochemical; settings: ampicillin (100 μM) as indicator substrate, 20 min preincubation
Protocol: as §3

[9] = target: T3, CTX-M-14 S130A/K234R β-lactamase; experiment: Clavulanic acid inhibition (Ki, Morrison fit), S130A/K234R enzyme; format: biochemical
Protocol: as §3

TEM-1 β-lactamase K234T = system: TEM-1 β-lactamase K234T; parameters: method as in PMID 1910040; settings: TEM-1 K234T versus TEM-1; cited from earlier work
WT CTX-M-14 β-lactamase [10] = target: T4, WT CTX-M-14 β-lactamase; experiment: Steady-state kinetics of β-lactam hydrolysis, WT enzyme; format: biochemical
Protocol: as §1

[11] = system: CO/N=C(\C(=O)N[C@@H]1C(=O)N2C(C(=O)O)=C(COC(C)=O)CS[C@H]12)c1csc(N)n1; experiment: as above; format: biochemical; settings: other: WT CTX-M-14, 25 °C, pH 7.0
Protocol: as §1

[12] = system: CC1(C)S[C@@H]2[C@H](NC(=O)[C@H](N)c3ccccc3)C(=O)N2[C@H]1C(=O)O; experiment: as above; format: biochemical; settings: other: WT CTX-M-14, 25 °C, pH 7.0
Protocol: as §1

Molecule: CC1(C)S[C@@H]2[C@H](NC(=O)[C@H](N)c3ccccc3)C(=O)N2[C@H]1C(=O)O [Ampicillin, ampicillin]
- fold reduction in hydrolysis (TEM-1 S130G β-lactamase): 10 fold
- Km [1]: 30000 µM
- fold decrease in kcat [1]: 2 fold
- fold increase in Km [1]: 260 fold
- Km ([1]; 25 °C, pH 7.0): 30700 µM
- kcat ([1]; 25 °C, pH 7.0): 30 ± 2 s⁻¹
- change in kcat/Km (catalytic efficiency), in words ([2]; K234R compared with WT): unchanged; also recorded: only modestly changed
- fold increase in Km ([2]; K234R compared with WT): 9 fold
- fold increase in kcat ([2]; K234R compared with WT): 5 fold
- fold increase in acylation rate ([2]; K234R compared with WT, inferred from kcat): at least 5 fold
- Km ([2]; K234R): 1050 µM
- kcat ([2]; K234R): 330 ± 33 s⁻¹
- kcat ([2]; K234R, listed as ampicillin): 330 s⁻¹
- k2 (acylation rate), lower limit based on kcat ([2]; K234R, inferred from kcat): ≥ 330 s⁻¹
- k3 (deacylation rate), lower limit based on kcat ([2]; K234R, inferred from kcat): ≥ 330 s⁻¹
- Km ([3]; S130A/K234R, too high to measure): > 30000 µM

Molecule: CO/N=C(\C(=O)N[C@@H]1C(=O)N2C(C(=O)O)=C(COC(C)=O)CS[C@H]12)c1csc(N)n1 [Cefotaxime, cefotaxime]
- k3 (deacylation rate) (WT CTX-M-14 β-lactamase [4]; calculated from k2 and kcat): 190 s^−1 and 190 ± 35 ^b s^−1
- Kd (WT CTX-M-14 β-lactamase [4]; fit of kobs from single turnover, read-out: KD (Ks, dissociation constant)): 74 ± 12 µM
- k2 (acylation rate) (WT CTX-M-14 β-lactamase [4]; single turnover, 5 μM cefotaxime, 25 °C): 210 s⁻¹ and 210 ± 12 s⁻¹
- fold decrease in kcat [1]: 1,000 fold
- fold increase in Km [1]: 4 fold
- Km ([1]; 25 °C, pH 7.0): 260 ± 13 µM
- kcat ([1]; 25 °C, pH 7.0): 0.1 ± 0.003 s⁻¹
- fold decrease in Km ([2]; K234R compared with WT): 6 fold
- fold decrease in kcat ([2]; K234R compared with WT): 500 fold
- fold decrease in kcat/Km ([2]; K234R compared with WT): 80 fold
- Km ([2]; K234R): 11 ± 4 µM
- kcat ([2]; K234R): 0.2 ± 0.01 s⁻¹
- kcat ([2]; K234R, listed as cefotaxime): 0.2 s⁻¹
- k3 (deacylation rate), lower limit based on kcat ([2]; K234R, inferred from kcat): ≥ 0.2 s⁻¹
- fold reduction in kcat ([3]; S130A/K234R compared with K234R): 400 fold
- fold reduction in kcat ([3]; S130A/K234R compared with S130A): 200 fold
- Km ([3]; S130A/K234R, 25 °C, pH 7.0): 120 ± 17 µM
- kcat ([3]; S130A/K234R, 25 °C, pH 7.0): 0.0005 ± 0.0001 s⁻¹
- hydrolysis, fold faster than TEM-1 (CTX-M β-lactamases): ~1,000 fold
- kcat, fold lower than for ampicillin hydrolysis (PSE-4 β-lactamase): ~2,000 fold
- Kd ([5]; fit of kobs from single turnover): 42 ± 8 µM
- k2 (acylation rate) ([5]; single turnover, 2.5 μM cefotaxime, 25 °C): 0.14 s⁻¹ and 0.14 ± 0.01 s⁻¹

Molecule: O=C(O)[C@H]1/C(=C/CO)O[C@@H]2CC(=O)N21 [Clav acid, Clavulanic acid]
- Ki [6]: 30 µM and 31 µM
- Ki [7]: 0.39 ± 0.02 µM
- Ki (WT CTX-M-14 β-lactamase [8]): 0.08 ± 0.001 µM
- Ki, fold above WT ([9]; S130A/K234R compared with WT): 3,500 fold
- Ki ([9]; S130A/K234R, ampicillin as indicator substrate, 20 min preincubation): 270 ± 20 µM

Molecule: CC1(C)S[C@@H]2[C@H](NC(=O)Cc3ccccc3)C(=O)N2[C@H]1C(=O)O [benzylpenicillin]
- fold increase in Km (TEM-1 β-lactamase K234T): 50 fold
- fold reduction in kcat (TEM-1 β-lactamase K234T): ~50 fold

Molecule: COCC1=C(C(=O)O)N2C(=O)[C@@H](NC(=O)/C(=N\OC)c3csc(N)n3)[C@H]2SC1 [cefpodoxime]
- fold decrease in Km ([2]; K234R compared with WT): 9 fold
- fold decrease in kcat ([2]; K234R compared with WT): 430 fold
- fold decrease in kcat/Km ([2]; K234R compared with WT): 50 fold

Molecule: CO/N=C(\C(=O)N[C@@H]1C(=O)N2C(C(=O)O)=CCS[C@H]12)c1csc(N)n1 [ceftizoxime]
- fold decrease in Km ([2]; K234R compared with WT): 8 fold
- fold decrease in kcat ([2]; K234R compared with WT): 320 fold
- fold decrease in kcat/Km ([2]; K234R compared with WT): 40 fold
- Km, fold higher than for cefotaxime (WT CTX-M-14 β-lactamase [10]): 45 fold
- kcat, fold higher than for cefotaxime (WT CTX-M-14 β-lactamase [10]): 2 fold
- kcat/Km, fold lower than for cefotaxime (WT CTX-M-14 β-lactamase [10]): 20 fold

Molecule: CO/N=C(\C(=O)N[C@@H]1C(=O)N2C(C(=O)O)=C(CSc3nc(=O)c(=O)[nH]n3C)CS[C@H]12)c1csc(N)n1 [ceftriaxone]
- fold decrease in Km ([2]; K234R compared with WT): 2 fold
- fold decrease in kcat ([2]; K234R compared with WT): 400 fold
- fold decrease in kcat/Km ([2]; K234R compared with WT): 170 fold

Molecule: CC(=O)OCC1=C(C(=O)O)N2C(=O)[C@@H](NC(=O)Cc3cccs3)[C@H]2SC1 [cephalothin]
- fold decrease in Km ([2]; K234R compared with WT): 20 fold
- fold decrease in kcat ([2]; K234R compared with WT): 100 fold
- fold decrease in kcat/Km ([2]; K234R compared with WT): 6 fold
- kcat, fold higher than for cefotaxime (WT CTX-M-14 β-lactamase [10]): ~7 fold
- kcat/Km, fold higher than for cefotaxime (WT CTX-M-14 β-lactamase [10]): ~3 fold

Molecule: WT CTX-M-14 β-lactamase (Escherichia coli)
- Km [11]: 66 ± 3 µM
- kcat [11]: 100 ± 1 s⁻¹
- kcat/Km [11]: 1.5e+06 ± 100000 M⁻¹ s⁻¹
- Km [12]: 120 ± 10 µM
- kcat [12]: 67 ± 3 s⁻¹
- kcat/Km [12]: 560000 ± 20000 M⁻¹ s⁻¹
